Measurements published in PMC10107917 (ACS Medicinal Chemistry Letters, 2023).
Read-outs that look alike come from different tables or passages of the source. Square brackets hold non-standard residues; d marks the D form. * marks the point of attachment. AMC = Cc1cc(=O)oc2cc(N*)ccc12; pGlu = O=C1CC[C@@H](C(=O)O)N1

Assays:
[1] = biological target: T1, human recombinant furin (Homo sapiens, UniProt P09958); format: biochemical
T1 construct: Soluble human recombinant furin was kindly gifted; gift of Dr Anna Kwiatkowska (group of Prof. Robert Day, Université de Sherbrooke)
Procedure: Initially, the activities of the furin inhibitors were screened at three concentrations, i.e., 2.4, 24.0, and 77.0 nM (Figure 4). For selected peptides 3, 5, and 6 and the reference FI, the inhibitory constants (Ki) were calculated (Table 2). Except for the bicyclic peptide 4, all of the inhibitors almost completely abolished the enzyme activity at the highest tested concentration. Peptide 4 was explicitly the weakest inhibitor in the series, also when compared with its monocyclic disulfide-bridged counterpart 1. When the inhibitory activities were analyzed at the lowest tested concentration (2.4 nM), three peptides (3, 5, and 6) reduced the furin activity to less than 50% of its initial noninhibited activity. All of them have an additional basic amino acid at their N-termini (in MD simulations this is depicted as a residue with number “0”). […] Such close inhibitory potency was not observed in the case of an analogous pair, i.e., 2 and 5. […] The two disulfide-bridged peptides, FI and 1, differ only at the P4 position, having Lys and Arg, respectively. […]
The IC50 values (inhibitor concentrations giving 50% inhibition of enzyme activity) were calculated from plots of enzyme activity (% of control sample) versus the inhibitor’s concentration using a four-parameter fit model (GraFit 5.0.12 Erithacus Software Ltd.). The IC50 values were determined from triplicate measurements with at least seven different inhibitor concentrations. The K i values […] were calculated using the Cheng-Prusoff equation, assuming the competitive mode of inhibition, according to the following relationship: IC50 = K i(1+S/Km). All measurements were performed using a Fluostar Omega microplate reader (BMG Labtech, Germany) and 96-well black plates (BRAND, Germany). Recombinant human matriptase-1/ST14 catalytic domain was purchased from R&D Systems, USA. Recombinant human matriptase-2 was obtained from Enzo Life Sciences, Switzerland.
Soluble human recombinant furin was kindly gifted by Dr Anna Kwiatkowska (group of Prof. Robert Day from Université de Sherbrooke).4
The following assay buffers were used: […] (matriptase-1 and matriptase-2), pH 7.5 100 mM HEPES with 1 mM CaCl 2 and 1.8 mg/mL BSA (furin). The substrates used in the assays were as follows: for matriptase-1 and matriptase-2 Boc-Gln-Ala-Arg-AMC (Pepta Nova, Germany) in final concentration of 5 µM, for furin […] (Pepta Nova, Germany) in final concentration of 20 µM. Enzymes concentrations were as follows: 1.25 ng/mL of matriptase-1, 1.51 U/mL for matriptase-2, and 1.1 nM for furin. In the case of matriptase-1 and matripase-2 concentrations were calculated according to information provided by the suppliers.
In short, the tested compounds were added to the appropriate protease in different concentrations and incubated in an assay buffer at 37 °C for 30 min. After this time, a solution of appropriate substrate was added. Reactions were monitored for at least 40 min at 37 °C. The final volume in each well was 200 µL for matriptases and 100 µL for furin. Measurements were carried out using excitation and emission wavelengths of 380 nm and 450 nm. The percentage inhibition of an enzyme was calculated relative to the control sample without an inhibitor. The K m value for furin substrate was determined by incubating the enzyme with its substrate in various concentrations as recommended.5 Plots of the substrate concentration versus the initial reaction velocity were analyzed according to Michaelis-Menten equation using GraFit 5.0.12 Erithacus Software Ltd. A double reciprocal (Lineweaver-Burk) plot was used to determine the Michaelis constant K m value. K m value determined for furin was 1.90 µM.
(§1) Total furin-like enzyme inhibition/activity in PANC-1 cell lysates
Cell line and cell culture. The pancreatic cancer cell line, PANC-1, was obtained from the American Type Culture Collection, ATCC (Manassas, USA). […]

[2] = biological target: T1, human recombinant furin; test: Screening (iterative deconvolution) of peptide sublibraries for furin inhibition; format: biochemical; settings: Figure 3D1
Procedure: Each of the sublibraries was screened for inhibitory activity against human recombinant furin in the presence of the fluorogenic substrate Pyr-Arg-Thr-Lys-Arg-AMC (where Pyr is pyroglutamic acid and AMC is 7-amino-4-methylcoumarin). Initially, each sublibrary was screened in a 2.2 ng/mL stock solution (Figure 3).
Phe(4-NH-Boc) we experienced difficulties with complete coupling. So we performed reactions by applying microwave heating (50 °C) which improved the process. The same procedures were applied during the whole library synthesis. 10% of mass of each portion was removed for deconvolution.
2. After that, both portions were combined and divided into 10 (j) equal portions, each of which was acylated individually with different protected amino acid. 10% of the mass of each portion was removed for deconvolution.
3. After mixing all j portions of peptidyl–resin, Cys protected derivative was attached.
4. […]
6. Sublibraries with fixed best hits in Xaa (l-j) were subsequently synthesized (using previously put aside 10% of synthesized sublibraries) and their inhibitory activity was determined until the position Xi. […] The inhibitory activity of sublibraries against furin were measured using Pyr-Arg-Thr-Lys-Arg-AMC fluorogenic substrate (Pepta Nova). The experiments were performed on 96-well plates (BRAND, Germany) and microplate reader FluoStar Omega (BMG Labtech, Germany). […]

[3] = PANC-1 cell lysate; settings: human, 37 °C
[4] = test system: furin-like enzyme activity in PANC-1 cell lysate; test: Total furin-like enzyme activity in PANC-1 cell lysate; format: biochemical, human; settings: peptide 100 µM
Procedure: The presence of furin in PANC-1 cell lysate was indicated by analyzing the release of fluorescent AMC product after incubation of furin substrate (Pyr-Arg-Thr-Lys-Arg-AMC) in the lysate, as described elsewhere.[31],[32] However, we are aware that this assay tends to reflect total furin-like enzyme activity rather than the activity of furin exclusively. This is the case because the liberation of AMC may be catalyzed not only by furin but also by an enzyme with a similar substrate preference, such as other PCs.[31] […] For comparison, the effect of a strong trypsin inhibitor, […] SFTI-1, on furin-like activity was insignificant under the same assay conditions. […] It is likely that SFTI-1 may provide protection for furin inhibitors from degradation by trypsin-like proteases. […]
µL for matriptases and 100 µL for furin. Measurements were carried out using excitation and emission wavelengths of 380 nm and 450 nm. The percentage inhibition of an enzyme was calculated relative to the control sample without an inhibitor. […]
as §1
Cell line and cell culture. The pancreatic cancer cell line, PANC-1, was obtained from the American Type Culture Collection, ATCC (Manassas, USA). PANC-1, a human pancreatic cancer cell line, was isolated from the pancreatic duct (ATCC, CRL-1469) and was cultured in Dulbecco’s Modified Eagle’s Medium (DMEM) by supplementing 10% fetal bovine serum (FBS) and 1% of penicillin/streptomycin (P/S). Cells were cultured at 37 °C with 5% CO2 in a humidified atmosphere. Cells were maintained in a 75 cm2 tissue culture flask. The medium was replaced every two days. The subcultivation ratio was […]
Preparation of lysates. PANC-1 cells were seeded in a Petri dishes. After 24 hours, […] were collected and centrifuged at 975 × g at 4 °C for 9 minutes. The supernatant was removed, and the cells were resuspended in a cold PBS buffer. The cells were centrifuged again at 900 × g at 4 °C for 5 minutes.
The supernatant was removed. Cells were suspended in Halt Protease Inhibitor Cocktail, EDTA-Free (100X) (Thermo Fisher Scientific). The samples were stored for 2 hours at -80°C. The samples were then defrosted and centrifuged at 16 000 × g at 4 °C for 20 minutes. The supernatant was stored at -80 […]
The inhibitory potency of selected peptides was examined in cell lysate alone or in presence of sunflower trypsin inhibitor (SFTI-1)6 sing furin fluorogenic substrate […] (Pepta Nova, Germany). Furin activity was determined by monitoring the AMC liberation over time with a plate reader. Measurements were performed using 96-well black plates (BRAND, Germany).
The general procedure was according to.7 In short: 20 µL of cell lysate (diluted 10 times with assay buffer pH 7.5 100 mM HEPES with 1 mM CaCl 2) was added to the well containing 60 µL of water, after 15 min in 37 °C 10 µL of peptide solution (final concentration in well 100 µM) was added. After 30 min incubation in 37 °C 10 µL substrate (100 µM final concentration) was added. […]
Next step was addition of appropriate peptide solution
(final concentration in well 100 µM) and 30 min incubation in 37 °C. After this time 10 µL substrate (100 µM final concentration) was added to the well. Percentage inhibition of the enzyme was calculated relative to the control sample without inhibitor.
Human serum from plasma (Sigma Aldrich, Germany) was prepared for the assay as referred previously.8 The experiments were carried out according to the procedure described before.2 The initial concentration of the peptide solutions was 1.54 mM. Each peptide solution was then diluted 10 times with human serum and incubated at 37 °C. Immediately after the start of incubation, 1, 2, 3, 5 and 24

[5] = inhibitor 77.0 nM (highest tested concentration)

T1 sequence (P09958 108-715 limits assumed): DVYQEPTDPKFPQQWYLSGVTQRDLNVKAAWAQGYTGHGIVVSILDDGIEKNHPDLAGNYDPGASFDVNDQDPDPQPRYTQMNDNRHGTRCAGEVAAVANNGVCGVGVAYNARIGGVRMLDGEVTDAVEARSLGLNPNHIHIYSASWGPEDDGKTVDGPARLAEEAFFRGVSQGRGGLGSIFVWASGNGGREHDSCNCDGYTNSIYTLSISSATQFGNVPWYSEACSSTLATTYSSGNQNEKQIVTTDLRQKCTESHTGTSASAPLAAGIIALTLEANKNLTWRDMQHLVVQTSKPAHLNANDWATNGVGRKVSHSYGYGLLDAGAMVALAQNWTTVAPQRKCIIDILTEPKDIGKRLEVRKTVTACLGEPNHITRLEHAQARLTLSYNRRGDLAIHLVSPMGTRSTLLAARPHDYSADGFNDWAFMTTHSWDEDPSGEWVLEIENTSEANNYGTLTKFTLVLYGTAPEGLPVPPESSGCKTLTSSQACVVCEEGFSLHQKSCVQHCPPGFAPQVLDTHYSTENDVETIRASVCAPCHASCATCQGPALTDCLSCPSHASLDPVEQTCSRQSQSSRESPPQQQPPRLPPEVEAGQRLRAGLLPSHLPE

Substance | furin activity versus control with no inhibitor added ([1]; inhibitor 2.4 nM) [%] | furin activity versus control with no inhibitor added ([1]; inhibitor 24.0 nM) [%] | furin activity versus control with no inhibitor added [1, 5] [%] | times more active than the peptide with Orn at P2 [2] | cleaved bond [3] | effect on furin-like activity in PANC-1 cell lysate [4]
&^1Arg-Arg-Cys(&^2)-Lys-Lys-Ser-Ile-Pro-Pro-Ile-Cys(&^2)-Phe&^1 (KKSIPPIC; Arg-Arg-Cys, Phe; head-to-tail cyclised, disulfide; printed: Lys-Lys-Ser-Ile-Pro-Pro-Ile-Cys) [inhibitor 4] | 97.18 | 46.14 | 3.72 |  |  | 
Arg-Arg-Cys(&)-Lys-Lys-Ser-Ile-Pro-Pro-Ile-Cys(&)-Phe-NH2 [inhibitor 1] | 62.95 | 6.02 | 0.20 | 2–3 times |  | 
Lys-Arg-Arg-Cys(&)-Lys-Lys-Ser-Ile-Pro-Pro-Ile-Cys(&)-Phe-NH2 [inhibitor 2] | 66.51 | 3.98 | 0.10 |  |  | 
[pGlu]RTKR-{AMC} |  |  |  |  | Arg-AMC | 
sunflower trypsin inhibitor 1 [SFTI-1, reference compound] |  |  |  |  |  | insignificant
